Patent EP0470490B1, “Substituted pyrroles” (F. HOFFMANN-LA ROCHE AG, priority 1990, dated 1992)
Where a name gives a salt, the structure may show the parent alone.

target: protein kinase C; test: in vitro protein kinase C inhibition: protein kinase-induced incorporation of 32P from [γ-32P]ATP into histone; format: biochemical; details: concentration of test compound which reduces by 50% the protein kinase-induced incorporation of 32P from [γ-32P]ATP into histone
Description: Research Comm. 19 (1979) 1218. The IC50 values in the following Table are that concentration of test compound which reduces by 50% the protein kinase-induced incorporation of ^32P from [γ-^32P]ATP into histone. Table

Point of comparison: `CN1C[C@H]2Cc3c(C4=C(c5cn(C)c6ccccc56)C(=O)NC4=O)c4ccccc4n3C[C@@H]2C1` (relative stereo) [Example 14, trans-3-(2,3,3a,4,11,11a-hexahydro-2-methyl-1H-pyrrolo[3',4':4,5]pyrido[1,2-a]indol-10-yl)-4-(1-methyl-3-indolyl)-1H-pyrrole-2,5-dione hydrochloride], IC50 7 nM. Against it:
- CN1C[C@@H]2Cc3c(C4=C(c5cn(C)c6ccccc56)C(=O)NC4=O)c4ccccc4n3C[C@@H]2C1 (relative stereo) [Example 6, cis-3-[2,3,3a,4,11,11a-hexahydro-2-methyl-1H-pyrrolo[3',4':4,5]pyrido-[1,2-a]indol-10-yl]-4-(1-methyl-3-indolyl)-1H-pyrrole-2,5-dione hydrochloride] — 4.3-fold higher, 30 nM
- Cn1cc(C2=C(c3c4n(c5ccccc35)CCC3(CCNC3)C4)C(=O)NC2=O)c2ccccc21 (stereo not drawn) [Example 1, 3-[6,7,8,9-tetrahydrospiro[pyrido[1,2-a]indole-8,3'-pyrrolidin-10-yl]-4-(1-methyl-3-indolyl)-pyrrole-2,5-dione trifluoroacetate] — 5.7-fold higher, 40 nM
